# Where a name gives a salt, the structure may show the parent alone. Read-outs that look alike come from different tables or passages of the source.
# Experiments:
# [1] = rcm bond, 12-membered ring
# [2] = rcm bond, 12-membered ring, Grubbs II/pTsOH, DCM
# [3] = target: purified human plasma kallikrein (Homo sapiens (Human), UniProt P03952); experiment: biochemical
# [4] = target: purified human Factor XIa (Homo sapiens (Human), UniProt P03951); experiment: biochemical
# [5] = from C=CC[C@H](NC(=O)OC(C)(C)C)c1cc(-c2ccccc2NC(=O)C(C=C)C(C)C)ccn1, Grubbs II (2 x 0.2 eq), microwave, DCE, 40.0 mM, […]
# Chain of purified human Factor XIa (P03951 whole entry, looked up): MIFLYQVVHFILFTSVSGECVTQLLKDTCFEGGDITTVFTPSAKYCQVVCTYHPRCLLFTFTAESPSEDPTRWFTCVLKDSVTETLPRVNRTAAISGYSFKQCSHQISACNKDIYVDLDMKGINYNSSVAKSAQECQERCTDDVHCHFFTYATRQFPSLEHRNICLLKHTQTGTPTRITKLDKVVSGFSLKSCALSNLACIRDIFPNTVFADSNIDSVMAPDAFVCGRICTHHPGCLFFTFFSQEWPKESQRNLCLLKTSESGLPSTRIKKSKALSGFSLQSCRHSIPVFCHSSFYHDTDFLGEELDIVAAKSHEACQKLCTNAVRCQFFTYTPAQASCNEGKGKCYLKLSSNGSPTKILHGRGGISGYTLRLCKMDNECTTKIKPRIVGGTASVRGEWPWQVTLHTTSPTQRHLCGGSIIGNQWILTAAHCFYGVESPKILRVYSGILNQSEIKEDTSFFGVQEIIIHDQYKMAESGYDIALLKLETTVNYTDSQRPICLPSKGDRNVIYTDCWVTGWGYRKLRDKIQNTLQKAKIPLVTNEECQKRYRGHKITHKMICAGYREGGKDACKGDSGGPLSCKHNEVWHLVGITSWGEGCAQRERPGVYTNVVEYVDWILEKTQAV
# Chain of purified human Factor XIa (P03951 whole entry, looked up): as above
# Chain of purified human plasma kallikrein (P03952 whole entry, looked up): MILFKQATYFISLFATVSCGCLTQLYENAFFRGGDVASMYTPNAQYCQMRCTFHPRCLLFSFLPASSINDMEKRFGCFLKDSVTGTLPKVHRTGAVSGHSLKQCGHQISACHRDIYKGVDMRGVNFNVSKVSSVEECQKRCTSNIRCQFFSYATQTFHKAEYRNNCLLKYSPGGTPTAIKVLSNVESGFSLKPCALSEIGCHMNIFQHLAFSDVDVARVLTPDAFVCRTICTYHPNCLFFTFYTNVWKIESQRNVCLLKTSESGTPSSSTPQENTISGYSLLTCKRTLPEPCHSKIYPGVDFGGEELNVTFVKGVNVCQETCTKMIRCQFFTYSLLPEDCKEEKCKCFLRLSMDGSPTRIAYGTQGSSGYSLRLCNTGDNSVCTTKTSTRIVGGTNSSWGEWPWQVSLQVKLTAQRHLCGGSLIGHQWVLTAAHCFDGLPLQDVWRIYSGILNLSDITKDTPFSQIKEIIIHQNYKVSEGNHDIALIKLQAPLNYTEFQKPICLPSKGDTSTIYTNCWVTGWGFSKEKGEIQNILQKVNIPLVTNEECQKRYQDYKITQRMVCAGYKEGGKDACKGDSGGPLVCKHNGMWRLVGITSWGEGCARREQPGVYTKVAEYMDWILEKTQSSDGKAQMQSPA
# Chain of purified human plasma kallikrein (P03952 whole entry, looked up): as above
compound,measurement,setting,value
CC(C)[C@@H]1/C=C/C[C@H](NC(=O)OC(C)(C)C)c2cc(ccn2)-c2ccccc2NC1=O,"ring closure, isolated yield",[1]; [5],10.2%
CC(C)[C@H]1/C=C/C[C@H](NC(=O)OC(C)(C)C)c2cc(ccn2)-c2ccccc2NC1=O,"ring closure, isolated yield",[1]; [5],8.9%
COC(=O)Nc1ccc2c(c1)C(=O)NC/C=C/C[C@H](NC(=O)OC(C)(C)C)c1cc-2ccn1,"ring closure, yield after HPLC","[2]; from C=CCNC(=O)c1cc(NC(=O)OC)ccc1-c1ccnc([C@H](CC=C)NC(=O)OC(C)(C)C)c1, […], 3.0 h",39.4%
COC(=O)Nc1ccc2c(c1)NC(=O)[C@H](C)/C=C/C[C@H](NC(=O)OC(C)(C)C)c1nc-2cn1COCC[Si](C)(C)C,"ring closure, isolated yield","[1]; from C=CC[C@H](NC(=O)OC(C)(C)C)c1nc(-c2ccc(NC(=O)OC)cc2NC(=O)[C@H](C)C=C)cn1COCC[Si](C)(C)C, Grubbs II (0.4 eq)/pTsOH, DCM, 10.0 mM, 40.0 °C, 21.5 h",40.7%
C[C@@H]1/C=C/C[C@H](NC(=O)OC(C)(C)C)c2cc(ccn2)-c2ccccc2NC1=O,"ring closure, isolated yield","[1]; from C=CC[C@H](NC(=O)OC(C)(C)C)c1cc(-c2ccccc2NC(=O)[C@H](C)C=C)ccn1, Grubbs II/pTsOH, DCM, 11.8 mM, 40.0 °C, 4.5 h",78%
"C[C@@H]1CCC[C@H](N2CCC(c3c(F)ccc(Cl)c3F)=CC2=O)c2cc(ccn2)-c2ccncc2NC1=O [Example 72, (10R,14S)-14-[4-(3-Chloro-2,6-difluorophenyl)-6-oxo-1,2,3,6-tetrahydropyridin-1-yl]-10-methyl-5,8,16-triazatricyclo[13.3.1.0^2,7]nonadeca-1(19),2(7),3,5,15,17-hexaen-9-one, TFA Salt]",Ki,[3],19 nM
same,Ki,[4],8.67 nM
"COC(=O)c1ccc2c(c1)-c1cccc(c1)[C@@H](N1CC=C(c3c(F)ccc(Cl)c3F)CC1=O)CCC[C@@H](C)C(=O)N2 [Example 174, Methyl (10R,14S)-14-[4-(3-chloro-2,6-difluorophenyl)-2-oxo-1,2,3,6-tetrahydropyridin-1-yl]-10-methyl-9-oxo-8-azatricyclo[13.3.1.0^2,7]nonadeca-1(19),2,4,6,15,17-hexaene-4-carboxylate]",Ki,[4],> 625 nM
"COC(=O)c1ccc2c(c1)-c1cccc(c1)[C@@H](N1CC=C(c3c(Br)ccc(Cl)c3F)CC1=O)CCC[C@@H](C)C(=O)N2 [Example 176, Methyl (10R,14S)-14-[4-(6-bromo-3-chloro-2-fluorophenyl)-2-oxo-1,2,3,6-tetrahydropyridin-1-yl]-10-methyl-9-oxo-8-azatricyclo[13.3.1.0^2,7]nonadeca-1(19),2,4,6,15,17-hexaene-4-carboxylate]",Ki,[4],> 625 nM
"tert-butyl N-[(10R,11Z,14S)-17-methoxy-5-[(methoxycarbonyl)amino]-10-methyl-9-oxo-8,16-diazatricyclo[13.3.1.0^2,7]nonadeca-1(19),2,4,6,11,15,17-heptaen-14-yl]carbamate and tert-butyl N-[(10R,11E,14S)-17-methoxy-5-[(methoxycarbonyl)amino]-10-methyl-9-oxo-8,16-diazatricyclo[13.3.1.0^2,7]nonadeca-1(19),2,4,6,11,15,17-heptaen-14-yl]carbamate as a Mixture","ring closure, yield after HPLC",[2]; 8.5 mM,29%

# From patent publication US9951071B2 (priority 2012, dated 2018)
